In patent US9617311B2, “Use of PEDF-derived polypeptides for promoting stem cells proliferation and wound healing” (Mackay Memorial Hospital, priority 2011, dated 2017):

Experiments:
LSCs in the limbus = assay: Limbal epithelium thickness and ΔNp63α-positive LSC level on day 5 post corneal wounding; assay type: in vivo, C57BL/6 mice; conditions: day 5 post-wounding; for thickness of the limbus / limbal epithelia: compared with normal unwounded eye; for levels of ΔNp63α-positive LSCs in limbus: control ointment 38.9±2.8%, normal unwounded eye 74.8±6.3%
Description: FIG. 4A provides histologic photographs (left panels, Hematoxylin and Eosin (H&E) staining, magnification, ×400), immunofluorescence microscopy photographs (middle panels, magnification, ×1000), and merged photographs (right panels); together, they illustrate layers of stratified limbal epithelium of mice at day 5 post-corneal injury according to the previous example of the present disclosure. […] Normal indicates uninjured eye. Cornea of normal eye that has no ΔNp63α-positive cell acted as ΔNp63α negative immunostaining control. FIG. 4B is a histogram illustrating levels of ΔNp63α-positive cells at limbus. Results of immunofluorescence were evaluated from 6 sections per mouse cornea, and 6 mice at each treatment. A labeling index was computed as the number of labeled cells divided by the total number of cells observed by a Hoechst 33258 fluorescent nuclear stain. P<0.005 versus control eye.
De-paraffinized tissue sections or 4% paraformaldehyde-fixed LSCs were blocked with 10% goat serum and 5% BSA in PBST (PBS containing 0.1% Tween-20) for 1 hour. Staining was done using primary antibodies against ΔNp63α (1:150 dilution), BrdU (1:250 dilution), and keratin-3 (1:250 dilution) at 37° C. for 2 hours, followed by incubation with the appropriate rhodamine- or FITC-conjugated donkey IgG (1:500 dilution) for 1 hour at RT. Nuclei were identified by counterstaining with Hoechst 33258 for 7 minutes. Images were captured using a Zeiss epifluorescence microscope with a CCD camera and photographs were taken by using the Axiovert software.
The experiments were performed using eight-week-old female C57BL/6 mice, and the procedures were approved by the Mackay Memorial Hospital Review Board for animal investigation. Animals were anesthetized by an intraperitoneal injection of a mixture of zoletil (6 mg/kg) and xylazine (3 mg/kg). One filter paper (0.9 mm diameter) soaked with 20% ethanol was placed on the central cornea of right eye for one minute and then irrigated extensively with PBS. Subsequently, mechanical epithelial scrape was performed using a punch under a dissection microscope to create a circular injury (2 mm diameter) at the entire corneal region of the mouse eye without encroaching the corneal stroma, limbus or conjunctiva.
Each synthetic peptide (the 39-mer, 34-mer, 29-mer, 25-mer, 20-mer, 18-mer, Mo 29-mer or Mo 20-mer) was reconstituted in DMSO as stock (5 mM) and mixed with TOBREX® eye ointment (Alcon; containing 0.3% Tobramycin and 0.5% Chlorobutanol) to a concentration 50 μM. In each of the treatment group (n=6-10), the right eye was treated with 20 μl eye ointment containing the synthetic peptide once a day after the scrape injury. In the control group (n=20), right eye was treated with 20 μl of eye ointment mixed with vehicle DMSO. Wound size was determined by staining with topical fluorescein (Fluor-I-Strip, Ayerst Laboratories, Philadelphia, Pa.) and photographed with a digital camera. The area of defect was quantified from the photographs using a computer-assisted image analyzer (Adobe Photoshop CS3 10.0) and was calculated as the percentage of residual epithelial defect at each time point/initial wound area.
On average, the levels of ΔNp63α-positive LSCs in limbus of normal unwounded eye is 74.8±6.3%; whereas the levels of ΔNp63α-positive LSCs in corneal wounded eyes treated with control, 29-mer, 20-mer, 18-mer and Mo 20-mer ointment were 38.9±2.8%, 77.0±4.1%, 73.1±8.6%, 39.4±2.6%, and 76.3±6.2% respectively (FIG. 4B). Taken together, 29-mer or 20-mer treatment can activate LSCs in vivo coincidently with more prominent corneal re-epithelialization than corneal regeneration by native progress.

[1] = system: full-thickness skin excisional wounds; assay: Skin wound healing in mice, histology with Masson's trichrome; assay type: in vivo, C57L/B6 mice; conditions: for residual epithelial defects, Masson's trichrome sections: day 7 after trauma, control ointment 43.5±6.5%; for area of GT (granulation tissue), folds over the control group / area of HE tissue, folds over that of the control group / residual epithelial defect, Masson's trichrome sections: day 4 after trauma; for area of GT (granulation tissue), folds over the control group / area of HE tissue, folds over that of the control group: edge of the wound; for residual epithelial defect, Masson's trichrome sections: sections of the middle of the wounds, control 63.8±5.8%
Description: FIGS. 7A to 7E provide quantification of wound healing at day 4. […] Arrowheads (▾) and arrows (↓) denote initial wound margins and the foremost tips of the hyperproliferative epithelium (HE; red color), respectively. Data are representative of 10-16 wounds (2 wounds per mouse) in each group. *P<0.02 versus control wound. FIG. 7B is a histogram illustrating the residual epithelial defect (%) in mice from each treatment group; only sections of the middle of the wounds were used for quantification. Data are shown as mean±SE. FIG. 7C provides representative photographs of wound edge. GT: granulation tissue (blue color); Es: eschar (deep-red). […] FIGS. 7D and 7E are histograms providing quantifications of the areas of HE and GT using Adobe Photoshop CS3 10.0. *P<0.02 versus control wound.
FIGS. 8A and 8B provide quantification of wound healing at day 7. […] Arrowheads (▾) and arrows (↓) denote initial wound margins and the foremost tips of the hyperproliferative epithelium, respectively. FIG. 8B is a histogram illustrating the residual epithelial defect (%) in mice from each treatment group; only sections of the middle of the wounds were used for quantification. Data are shown as mean±SE. *P<0.05 versus control wound.
To perform full-thickness skin excision, 8- to 10-week-old C57L/B6 mice were respectively anesthetized by an intraperitoneal injection of a mixture of zoletil (6 mg/kg) and xylazine (3 mg/kg). Two full-thickness skin excisional wounds, 4 mm in diameter were made on either side of the dorsal midline using Sklar Tru-Punch disposable biopsy punch (Sklar, West Chester, Pa., USA). In each treatment group (n=6), the skin wound was treated with 25 μl skin ointment (containing 50 μM synthetic peptide and 0.006 μl DMSO vehicle) once daily after the skin scraping. In the control group (n=6), skin wound was treated with 25 μl of skin ointment with equal concentration of DMSO. Each gram of the above skin ointment contains 5 mg neomycin sulfate and 12.5 mg Bacitracin Zinc. Wounds were left uncovered and harvested 4 and 7 days after injury. Mice were housed individually during the healing period.
For histological analysis the complete wounds including 2 mm of the epithelial margins was isolated, bisected, fixed overnight in 4% PFA in PBS, and embedded in paraffin. Sections (5 μm) from the middle of the wound were stained using the Masson's trichrome procedure as described by the manufacturer, in which the epithelium was stained red and connective tissue was stained blue. Photographs were taken using a Leica DC 500 camera (Leica Microsystems).
To further confirm the efficacy of 29-mer and 20-mer on skin wound repair, skin sections from day 4 after trauma were stained using the Masson's trichrome. […] The residual epithelial defect of 29-mer and 20-mer-treated groups were 52.7±6.2% and 49.7±5.6%, respectively; as compared to control animals of 63.8±5.8% (FIG. 7B). In addition, 29-mer treatment elevated the thicknesses of hyper-proliferative epithelial (HE) tissue and granulation tissue (GT) around the edge of the wound (FIG. 7C).
Masson's trichrome was used to stain skin sections obtained from day 7 after trauma for the measurement of the wound closure.

Sequence	thickness of the limbus / limbal epithelia (LSCs in the limbus)	levels of ΔNp63α-positive LSCs in limbus (LSCs in the limbus) [%]	residual epithelial defects, Masson's trichrome sections [1] [%]	area of GT (granulation tissue), folds over the control group [1] [folds]	area of HE tissue, folds over that of the control group [1] [folds]	residual epithelial defect, Masson's trichrome sections [1] [%]
EQRTESIIHRALYYDLIS [18-mer]	thinner	39.4±2.6	–	–	–	–
SLGAEHRTESVIHRALYYDL [Mo 20-mer, synthetic peptide derived from mouse PEDF]	returned to full-thickness of stratified layers	76.3±6.2	–	–	–	–
SLGAEHRTESVIHRALYYDLITNPDIHST [Mo 29-mer, synthetic peptide derived from mouse PEDF]	–	–	17.2±7.3	–	–	–
SLGAEQRTESIIHRALYYDL [20-mer, synthetic peptide identical to residues 11-30 of the 39-mer]	returned to full-thickness of stratified layers	73.1±8.6	20.8±6.1	1.37±0.17	1.32±0.21	49.7±5.6
SLGAEQRTESIIHRALYYDLISSPDIHGT [29-mer, short synthetic PEDF peptide derived from the 39-mer]	returned to full-thickness of stratified layers	77.0±4.1	17.9±3.3	1.45±0.23	1.41±0.25	52.7±6.2
